Data on 1 molecule can be found in paper PMC12344696, “Elucidation of the Synergistic Interaction Between Bilirubin and Casein Protein: An Integrated Spectroscopy and Computational Approach” (Biomacromolecules, 2025).

Each structure is given as a SMILES string.

The experiment deals with T1, casein (CAS) protein; CAS micelles.
T1 construct: gene CSN1S1; whole casein mixture (alpha, beta, kappa), self-assembled micelles above CMC
Briefly: UV-vis absorption titration of BIL with casein, Hill1 fit. The settings on record: phosphate buffer pH 7.3, 298 K; casein mixture 0.05-3 mg/mL across the CMC; converted from a mg/mL fit with average casein mass 22,500 Da; read-out: binding constant (converted).

With `C=CC1=C(C)/C(=C/c2[nH]c(Cc3[nH]c(/C=C4\NC(=O)C(C)=C4C=C)c(C)c3CCC(=O)O)c(CCC(=O)O)c2C)NC1=O` [BIL, bilirubin], the Kd is 33.3 µM.
